# Data from patent US20120190659A1, “ANGIOGENESIS INHIBITORS” (Children's Medical Center Corporation, priority 2009, published 2012).
# Experiments:
# [1] = system: human umbilical vascular endothelial (HUVE) cells; assay: HUVE cell growth (BrdU incorporation); assay type: cell-based; details: for HUVE cell growth induced by PDGF / HUVE cell growth induced by VEGF / HUVE cell growth induced by bFGF: concentration not given; for growth of HUVE cells (BrdU incorporation): 0, 200, 1000 and 2000 nM (FIG. 3B); for BrdU incorporation: 1 μM (FIG. 3A); for doses that inhibited BrdU incorporation: FIGS. 3A & 3B
# Experimental: Incorporation of 5-bromo-2′-deoxyuridibe (BrdU) is a common method used to detect the DNA replication in actively proliferating cells. Inhibition of cell growth is inferred by the decrease of BrdU incorporation into the cells. […] The assay can be preformed in the presence or absence of growth factors such as VEGF, bFGF and PDGF. This assay was performed by a procedure described in Huang S, Chen C S, Ingber D E. “Control of cyclin D1, p 27(Kip1), and cell cycle progression in human capillary endothelial cells by cell shape and cytoskeletal tension.” Mol Biol Cell. 1998, 9:3179-93, the teachings of which are incorporated herein by reference.
# [2] = system: human umbilical vascular endothelial (HUVE) cells; assay: HUVE cell migration, transwell migration assay stimulated by VEGF; assay type: cell-based; details: for HUVE cell migration: 20 ng/ml VEGF
# Experimental: Cell migration is an important aspect of angiogenesis. The effect of the test compounds on HUVE cell motility as stimulated by VEGF was examined using a transwell migration assay. This assay was performed by a similar procedure described in Shimizu A, Mammoto A, Italiano J E Jr, Pravda E, Dudley A C, Ingber D E, Klagsbrun M. “ABL2/ARG tyrosine kinase mediates SEMA3F-induced RhoA inactivation and cytoskeleton collapse in human glioma cells.” J. Biol. Chem. 2008, 283:27230-8, the teaching of which are incorporated by reference.
# Briefly, transwell membranes (Coster, N.Y.) were coated with 0.5% gelatin, and cells were seeded (10^5 cells/100 μl) with 0.3% FBS/EBM2. The test compound was added to the both sides of the chamber. Cells were stained with Giemsa solution 16 hours later, and counted in 10 random fields (×400).
# [3] = system: human umbilical vascular endothelial (HUVE) cells; assay: Tube formation of HUVE cells on Matrigel; assay type: cell-based; details: for tube formation, quantitative analysis of mean tube length: cultured with VEGF in the basal EBM2 medium (FIG. 12)
# Experimental: The effect of an agent on tube formation of HUVE cells was determined by a procedure described in Grant D S, Kinsella J L, Kibbey M C, LaFlamme S, Burbelo P D, Goldstein A L, Kleinman H K “Matrigel induces thymosin beta 4 gene in differentiating endothelial cells.” J Cell Sci. 1995, 108:3685-94, the teachings of which are incorporated by reference.
# Briefly, HUVE cells (10^4 cells/150 μl of EBM-2) were plated on Matrigel™ (BD biosciences) and incubated for 12-16 hrs in the presence of VEGF (20 ng/ml) and the test compound. Tube formation was assessed in 10 random fields (4×).
# [4] = system: developing vasculature of the newborn mouse retina; assay: In vivo screening assay for inhibitors of retinal angiogenesis (intravitreous injection, newborn mice); details: for retinal vessel formation: 5 nmol single injection
# From the text: Blood vessel formation is critical for organ formation in the body. Compounds that inhibit angiogenesis within specific tissue types have therapeutic potential. For example, compounds that are effective in the retina may be used for the treatment of many types of blindness and other opthalmological diseases. Therefore, an in vivo method to screen for compounds that inhibit the growing vascular networks within the developing whole retina in eyes of living newborn mice was developed.
# To screen in vivo in the eye for inhibitors of retinal angiogenesis, we adapted and modified the system described in Mammoto, A., Connor, K. M., Mammoto, T., Yung, C. W., Huh, D., Aderman, C. M., Mostoslaysky, G., Smith, L. E. H., & Ingber, D. E. A mechanosensitive transcriptional mechanism that controls angiogenesis. Nature 457, 1103-1108 (2009); and Shih, S. C., Ju, M., Liu, N. & Smith, L. E. Selective stimulation of VEGFR-1 prevents oxygen-induced retinal vascular degeneration in retinopathy of prematurity. J. Clin. Invest. 112, 50-7 (2003), the teachings of both are incorporated herein by reference. This assay was performed by a procedure described in Chen J, Connor K M, Aderman C M, Smith L E. “Erythropoietin deficiency decreases vascular stability in mice.” J. Clin. Invest. 2008, 118:526-33, the teachings of which are incorporated herein by reference.
# After intraperitoneal injection of Avertin (125-240 mg/kg), the eyelid of mice was opened in a gentle manner by using tiny sterile blunt forceps. Test compound was injected into the vitreous of one eye of the mouse and a vehicle was injected into the other eye of the same mouse at either P6 or P14. Injections were performed by inserting an Exmire microsyringe (MS-NE05, ITO Corp. Fuji, Japan) into the vitreous 1 mm posterior to the corneal limbus. Pupils were dilated with 1% tropicamide. Insertion and the injection (0.3-0.5 μL solution) were directly viewed through an operating microscope, taking care not to injure the lens or the retina. The time points for intravitreous injection were set at P6 and P14 because these stages represent distinct developmental stages during vascular network formation. Blood vessels start spreading over the surface of retinal tissue at early times (P4-P6), then these distributed blood vessels start migrating into the deeper layer of the retina to make a three-dimensional vascular network at later times (P6-P14). Thus, using this approach, screening for inhibitors of initiation of angiogenesis at early times, and agents that induce regression of preexisting capillary vessels at the later time point can be identified.
# After injection, the eyelid was treated with bacitracin eye antibiotic ointment, and eyelids naturally reformed after the procedure. Vascular network formation in the retina was assessed two days after injection using flat-mounted, fluorescein-conjugated isolectin-staining and immunohistochemical analysis. Quantification of vessel density was performed with Adobe photoshop.
# [5] = system: human umbilical vascular endothelial (HUVE) cells; assay: Compound toxicity in HUVE cells (morphology after 24 h culture); assay type: cell-based; details: 50-2000 nM, 5% FBS/EGM2 media
# Experimental: HUVE cells were cultured for 24 hours on standard tissue culture dishes in the presence of EJC 1-6 over a range of concentration (50-2000 nM). […] (FIGS. 1 and 2).
# [6] = 50 nM, cultured with VEGF in the basal EBM2 medium
structure (smiles),measurement,setting,value
CN(C)[C@H]1CC[C@H]2[C@@H](CC[C@@H]3[C@@H]2CC[C@]2(C)C(c4ccc5cnccc5c4)=CC[C@@H]32)C1 [EJC-10],IC50,"[1]; Homo sapiens, in the presence of PDGF, read-out: IC50, cell growth induced by PDGF",0.0795 µM
same,IC50,"[1]; Homo sapiens, in the presence of VEGF, read-out: IC50, cell growth induced by VEGF",0.0167 µM
same,IC50,"[1]; Homo sapiens, in the presence of bFGF, read-out: IC50, cell growth induced by bFGF",0.0641 µM
same,IC50,"[1]; Homo sapiens, media absent an exogenous growth factor, read-out: IC50, growth of HUVE cells",0.0576 µM
same,HUVE cell growth induced by PDGF,[1],inhibited
same,HUVE cell growth induced by VEGF,[1],inhibited
same,HUVE cell growth induced by bFGF,[1],inhibited
same,IC50,"[1]; in the presence of PDGF, read-out: IC50, cell growth induced by PDGF",0.0795 µM
same,IC50,"[1]; in the presence of bFGF, read-out: IC50, cell growth induced by bFGF",0.0641 µM
same,HUVE cell migration,[2]; 50 nM test compound,inhibit
same,IC50,"[2]; Homo sapiens, VEGF-stimulated, transwell, read-out: cell migration inhibition IC50",0.0707 µM
same,tube formation,[3]; [6],significant inhibition
same,"tube formation, quantitative analysis of mean tube length",[3]; 50 nM,inhibit
same,retinal vessel formation,[4]; p6 mice,did not inhibit retinal vessel formation completely
same,retinal vessel formation,[4]; p14 mice,did not inhibit retinal vessel formation completely
same,vessel density in the retina compared to control,"[4]; single dose of 500 pmol, p6 mice (FIG. 13)",decreases
same,retinal angiogenesis,"[4]; single injection of 500 pmol, p6 mice",inhibited
C[C@]12CC[C@H]3[C@@H](CC[C@H]4C[C@@H](N5CCCC5)CC[C@@H]43)[C@@H]1CC=C2c1ccc2ccncc2c1 [EJC-21],HUVE cell migration,[2]; 50 nM test compound,did not inhibit
CN(C)[C@H]1CC[C@H]2[C@@H](CC[C@@H]3[C@@H]2CC[C@]2(C)[C@@H](c4ccc5ccncc5c4)CC[C@@H]32)C1 [EJC-07],HUVE cell migration,[2]; 200 nM test compound,active
CN(C)[C@H]1CC[C@H]2[C@@H](CC[C@@H]3[C@@H]2CC[C@]2(C)C(c4cccnc4)=CC[C@@H]32)C1 [EJC-14],cell growth induced by VEGF,[1]; 50 nM,inhibited
same,HUVE cell growth induced by PDGF,[1],only at higher concentrations and not
same,HUVE cell growth induced by VEGF,[1],inhibited
same,HUVE cell growth induced by bFGF,[1],only at higher concentrations and not
same,HUVE cell migration,[2]; 50 nM test compound,inhibit
same,retinal vessel formation,[4]; p6 mice,did not inhibit
same,retinal vessel formation,[4]; p14 mice,did not inhibit
CN1CCc2ccc([C@H]3CC[C@H]4[C@@H]5CC[C@H]6C[C@@H](N(C)C)CC[C@@H]6[C@H]5CC[C@]34C)cc2C1 [EJC-8],HUVE cell migration,[2]; 50 nM test compound,inhibit
C[C@]12CC[C@H]3[C@@H](CC[C@H]4C[C@@H](N5CCOCC5)CC[C@@H]43)[C@@H]1CC=C2c1ccc2cnccc2c1 [EJC-24],HUVE cell migration,[2]; 50 nM test compound,did not inhibit
CN1CCc2ccc(C3=CC[C@H]4[C@@H]5CC[C@H]6C[C@@H](N(C)C)CC[C@@H]6[C@H]5CC[C@]34C)cc2C1 [EJC-9],HUVE cell migration,[2]; 50 nM test compound,not active
same,HUVE cell migration,[2]; 200 nM test compound,not active
same,tube formation,[3]; [6],significant inhibition
same,"tube formation, quantitative analysis of mean tube length",[3]; 50 nM,inhibit
CN(C)[C@H]1CC[C@H]2[C@@H](CC[C@@H]3[C@@H]2CC[C@]2(C)C(c4ccc5ccncc5c4)=CC[C@@H]32)C1 [EJC-2],morphological change of HUVE cells,[5],No morphological change
same,growth of HUVE cells (BrdU incorporation),[1],inhibit the growth
same,BrdU incorporation,[1],inhibit
same,doses that inhibited BrdU incorporation,[1],> 200 nM
same,HUVE cell migration,[2]; 200 nM test compound,exhibited inhibitory activity
same,HUVE cell migration,[2]; 1 μM (1000 nM) test compound,inhibit
same,tube formation,"[3]; 200 nM, cultured with VEGF in the basal EBM2 medium",inhibited
same,tube formation,[3]; 2 μM,inhibited
same,"retinal angiogenesis, morphological analysis",[4]; 5-10 nmol in a single injection,"appeared to inhibit retinal angiogenesis based on morphological analysis, but the sampling numbers were low and significant effects were not observed"
CN(C)[C@H]1CC[C@H]2[C@@H](CC[C@@H]3[C@@H]2CC[C@]2(C)C(c4cccc5cnccc45)=CC[C@@H]32)C1 [EJC-12],HUVE cell migration,[2]; 50 nM test compound,inhibit
C[C@]12CC[C@H]3[C@@H](CC[C@H]4C[C@@H](N5CCOCC5)CC[C@@H]43)[C@@H]1CC=C2c1ccc2ccncc2c1 [EJC-23],HUVE cell migration,[2]; 50 nM test compound,did not inhibit
CN(C)[C@H]1CC[C@H]2[C@@H](CC[C@@H]3[C@@H]2CC[C@]2(C)C(c4ccncc4)=CC[C@@H]32)C1 [EJC-15],HUVE cell migration,[2]; 50 nM test compound,inactive
CN(C)[C@H]1CC[C@H]2[C@@H](CC[C@@H]3[C@@H]2CC[C@]2(C)C(c4ccc5ncccc5c4)=CC[C@@H]32)C1 [EJC-11],HUVE cell migration,[2]; 50 nM test compound,moderately active
CN(C)[C@H]1CC[C@H]2[C@@H](CC[C@@H]3[C@@H]2CC[C@]2(C)C(c4cccc5ncccc45)=CC[C@@H]32)C1 [EJC-13],HUVE cell migration,[2]; 50 nM test compound,moderately active
C[C@]12CC[C@H]3[C@@H](CC[C@H]4C[C@@H](N5CCCC5)CC[C@@H]43)[C@@H]1CC=C2c1ccc2cnccc2c1 [EJC-22],HUVE cell migration,[2]; 50 nM test compound,did not inhibit
CN(C)[C@@H]1CC[C@H]2[C@@H](CC[C@@H]3[C@@H]2CC[C@]2(C)C(c4ccc5ccncc5c4)=CC[C@@H]32)C1 [EJC-1],morphological change of HUVE cells,[5],No morphological change
same,growth of HUVE cells (BrdU incorporation),[1],inhibit the growth
same,BrdU incorporation,[1],inhibit
same,doses that inhibited BrdU incorporation,[1],greater than 1 μM
same,HUVE cell migration,[2]; 200 nM test compound,exhibited inhibitory activity
same,HUVE cell migration,[2]; 1 μM (1000 nM) test compound,inhibit
same,HUVE cell migration,[2]; 2000 nM test compound,inhibit
same,tube formation,[3]; 2 μM,inhibited
